Source: patent US20240166637A1, “COMPOUNDS AND METHODS FOR TREATING MALARIA” (Microbiotix, Inc., priority 2021, published 2024)
≈ marks a conversion by molar mass, not a printed value. Like-named read-outs stand apart in the source and are kept apart here. Each block holds one compound with its values, some of them ahead of it.

How the values were obtained:
PSAC = assay: Transport inhibition assay: PSAC block by osmotic lysis of infected cells in sorbitol (transmittance); format: cell-based, P. falciparum; conditions: for PSAC K0.5: Table 6
Method: Transport experiments were conducted to examine the affinity of the inhibitor compounds for PSAC. Inhibitor affinity for blocking PSAC was determined using a quantitative transmittance assay which is based on the osmotic lysis of infected cells with sorbitol (Desai, S., and A. Pillai, U.S. Pat. No. 8,618,090, supra (2013); Dondorp et al., supra (2009); Hooft van Huijsduijnen, R., and T. N. Wells, supra (2018)). Malaria parasite cultures were enriched at the trophozoite stage via the Percoll-sorbitol method (Pillai et al., Mol. Pharmacol., 82:1104-1114 (2012); Pillai et al., Mol. Pharmacol., 77:724-733 (2010); Wagner et al., Biophys. J., 84:116-123 (2003)), washed, and resuspended at 37° C. and 0.15% hematocrit in 280 mM sorbitol, 20 mM Na-HEPES, 0.1 mg/ml bovine serum albumin, pH 7.4, with the indicated concentrations of inhibitor compounds. Osmotic lysis, resulting from PSAC-mediated sorbitol uptake, was continuously tracked with transmittance measurements through the cell suspension (700-nm wavelength, DU640 spectrophotometer with Peltier temperature control; Beckman Coulter, Fullerton, CA).
Inhibitor dose-response relationships (K0.5 values) were calculated from the times required to reach a fractional lysis threshold. K0.5 estimates obtained with the osmotic lysis assay match those obtained using cell-attached and whole-cell patch-clamp assays (Alkhalil et al., Blood, 104:4279-4286 (2004); Dondorp et al., N. Engl. J. Med., 361:455-467 (2009)), confirming a quantitatively robust and valid assay.

human HeLa cells = assay: Mammalian cytotoxicity, HeLa cells, 72 hr, MTS; format: cell-based
Method: (§1) Cytotoxicity of the inhibitor compounds was quantified using human HeLa cells (CLL-2; American Type Culture Collection, Manassas, VA) seeded at 4000 cells/well in 96-well plates. Cultures were incubated with individual inhibitor compounds for 72 hr at 37° C. in minimal essential medium (Invitrogen) supplemented with 10% fetal calf serum.

Serum stability (MSS) = format: in vitro ADME; conditions: mouse serum exposure; for MSS % consumed: after 60 minutes
Excerpt: The microsome and serum stability assays measure the stability of the inhibitor compounds when exposed to the liver and to serum in vivo. For serum stability, inhibitor compounds were exposed to 55% mouse serum and the resulting samples analyzed by LC/MS to quantitate the remaining parent. […]

CYP3A4 = CYP3A4 (Homo sapiens, UniProt P08684); assay: Cytochrome P450 inhibition, fluorogenic substrate assay; format: in vitro ADME
Excerpt: To measure Cytochrome P450 inhibition, a fluorogenic substrate assay was used to measure inhibitor compound interference with enzymes that metabolize drugs in vivo (Houston, J., Biochem. Pharmacol., 47:1469-1479 (1994)).

[1] = Protein binding in mouse serum by equilibrium dialysis; format: in vitro ADME
[2] = mouse, in vivo
Method: (§2) Tolerability. […] Pharmacokinetics (PK). […] PK parameters were calculated using the WinNonLin program. Efficacy.

CD-1 mice = assay: Murine tolerability; conditions: not dose-related, considered formulation-related
Method: Tolerability. The test compounds were dissolved at concentrations of 1 to 10 mg/mL in various formulations (5% DMSO, 5% cremophor, 80% PEG-300 or 10% DMSO, 80% PEG-400, 1% Polysorbate 80). Male CD-1 mice were dosed with 4 dose levels of each test compound (vehicle control plus 3 dose levels ranging from 10-200 mg/kg as described in Table 8) of test compound by the intravenous (IV), intraperitoneal (IP) or oral (PO) route. Clinical observations described in Table 8 were made at various time points out to 24 hours after which mice were humanely euthanized.
Animals were monitored for 24 hours for signs of toxicity.

Caco-2 cells = assay: Caco-2 permeability; format: in vitro ADME; conditions: apical to basolateral
Method: (§3) The Caco-2 assay is an indicator of the potential oral bioavailability of the inhibitor compound. Caco-2 cells were applied to wells of a collagen-coated BioCoat Cell Environment (BD Biosciences) plate as described (Duraisingh, M., and A. Cowman, Acta Trop., 94:181-190 (2005)). The test agent was added to the apical (A) side and the amount of permeation was determined on the basolateral (B) side by LC/MS/MS analysis. The amount of material on the A and B sides were used to calculate a Papp value (Caco-2 Papp).

[3] = Solubility by nephelometric method; format: physicochemical
Method: The solubility of the inhibitor compounds was determined by the nephelometric method (Bevan, C., and R. Lloyd, supra (2000)). A high-throughput screening method for the determination of aqueous drug solubility using laser nephelometry in microtiter plates. The compounds were serially diluted in DMSO and then added to water. […] Additionally, to confirm the nephelometry results, compounds were stirred with a test vehicle (deionized water, PBS, or D5W) at 20° C. for 4 hours. Additional compound was added if complete dissolution was obtained. The mixture was then filtered and the filtrate assayed by HPLC to quantify the amount of compound in solution (Solubility).

[4] = test system: P. falciparum Pf3D70087/N9; assay: Murine efficacy, humanized NSG mouse model infected with P. falciparum; format: in vivo
Method: as §2
In a second study, NSG mice were treated with either 25 mg/kg or 50 mg/kg of MBX 4055 either once or twice daily for 4 days by the oral route. […] Percent parasitemia was measured daily for 5 days as were the plasma levels of MBX 3318 and 4055.
Humanized NSG mice infected with P. falciparum were treated with 100 mg/kg of MBX 3318 twice daily for 4 days by the PO route. Control mice were treated with vehicle alone (10% DMSO, 80% PEG400, 1% Polysorbate 80). […] During the assay, blood samples were taken from mice treated with MBX 3318 to measure the levels of compound (FIG. 2B).
The murine model was also employed against MBX 4055. Humanized NSG mice infected with P. falciparum were treated with 25 or 50 mg/kg of MBX 4055 twice daily or 50 mg/kg once daily, for 4 days by the PO route. […] Unfortunately, the remaining mice that were dosed twice daily, including the vehicle-only mouse died within 2-5 days due to the apparent toxicity of the Labrasol-containing vehicle. During the assay, blood samples were taken from mice treated with MBX 4055 to measure the levels of compound (FIG. 3B).

[5] = Microsome stability (MLMS); format: in vitro ADME, mouse; conditions: murine liver microsomes; for MLMS % consumed: after 30 min.
Method: The microsome and serum stability assays measure the stability of the inhibitor compounds when exposed to the liver and to serum in vivo. For microsomal stability measurements, inhibitor compounds were incubated with mouse microsomal proteins in buffer with NADPH (Bevan, C. and R. Lloyd, Anal. Chem., 72:1781-1787 (2000)) and the resulting samples were analyzed by LC/MS to quantitate the remaining parent. The data are calculated as percent of parent remaining.

P. falciparum = assay: In vitro parasite growth inhibition in PGIM (SYBR Green I); format: cell-based
Method: P. falciparum laboratory lines were propagated at the asexual stage with standard methods, in RPMI 1640 medium supplemented with 25 mM HEPES, 31 mM NaHCO3, 0.37 mM hypoxanthine, 10 μg/ml gentamicin, and 10% pooled human serum. Nutrient deprivation experiments utilized standard PSAC Growth Inhibition Medium (PGIM) but with reduced concentrations of individual ingredients. Human serum was exhaustively dialyzed against distilled water before addition to those media. The PGIM contained reduced concentrations of isoleucine (11.4 μM), glutamine (102 μM), and hypoxanthine (3.01 μM) and was supplemented with the dialyzed human serum. Growth inhibition experiments (Burrows et al., Parasitology, 141:128-139 (2013)) were quantified by using a SYBR Green I-based fluorescence assay for parasite nucleic acid in 96-well microplates, as described previously (Dondorp et al., supra (2009)). Ring-stage synchronized cultures were seeded at 1% parasitemia and 2% hematocrit levels in standard medium or PGIM and were maintained for 72 hr at 37° C. in 5% O2/5% CO2 in nitrogen, without medium changes. Cultures were then lysed in 20 mM Tris, 10 mM EDTA, 0.016% saponin, 1.6% Triton X-100, pH 7.5, with SYBR Green I nucleic acid gel stain (Invitrogen, Carlsbad, CA) at 5000-fold dilution.
After a […] incubation, parasite DNA contents were quantified through fluorescence measurements (excitation, 485 nm; emission, 528 nm). Results were presented as IC50 values, defined as the concentration of inhibitor which decreases P. falciparum (Pf) DNA content by 50% (IC50 PGIM).

Caco-2 permeability = format: in vitro ADME; conditions: human, Caco-2; read-out: Papp, Caco-2 cell monolayer
Method: as §3

[6] = Mammalian cytotoxicity, HeLa cells, 72 hr, MTS; format: cell-based, human; conditions: human, HeLa cells; for CC50 at 72 h: 3 days
Method: as §1

[7] = mouse serum, equilibrium dialysis

CYP3A4, sequence (P08684 whole entry, species assumed): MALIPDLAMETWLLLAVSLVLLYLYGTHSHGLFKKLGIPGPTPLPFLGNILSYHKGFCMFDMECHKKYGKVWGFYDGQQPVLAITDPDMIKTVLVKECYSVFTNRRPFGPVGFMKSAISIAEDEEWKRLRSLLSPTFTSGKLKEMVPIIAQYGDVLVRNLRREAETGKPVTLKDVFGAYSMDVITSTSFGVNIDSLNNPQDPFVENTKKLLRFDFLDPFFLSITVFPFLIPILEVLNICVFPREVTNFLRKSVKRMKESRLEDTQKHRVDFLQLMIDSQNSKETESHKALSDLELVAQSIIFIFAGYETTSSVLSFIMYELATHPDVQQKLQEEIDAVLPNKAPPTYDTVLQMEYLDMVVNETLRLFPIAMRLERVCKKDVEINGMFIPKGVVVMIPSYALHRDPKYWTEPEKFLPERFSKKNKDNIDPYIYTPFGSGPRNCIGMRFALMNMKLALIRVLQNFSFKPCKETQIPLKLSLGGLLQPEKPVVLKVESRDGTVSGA

SMILES: N#Cc1ccncc1N1CCN(C(=O)c2ccc(C(=O)N3CCCC3)s2)CC1 [MBX-4075]
PSAC K0.5 (PSAC): 1.08 µM
CC50 (human HeLa cells): > 200 µM
SI CC50/PSAC K0.5 (human HeLa cells): >185

SMILES: Cc1nccnc1N1CCN(S(=O)(=O)c2ccc(-c3ccc(=O)[nH]n3)s2)CC1 [MBX-4055]
MSS % consumed (Serum stability (MSS)): 5 % consumed
Cyp 3A4 % inhib. at 5 μM (CYP3A4): 0 % inhib.
Mouse PB % bound [1, 7]: 94 % bound
% F (oral bioavailability) [2]: 66%
half-lives (FIG. 1, clearance rates) [2]: favorable half-lives
AUClast ([2]; iv, 10 mg/kg): 34,275 hr*ng/mL
Clearance ([2]; iv, 10 mg/kg): 392 mL/h/kg
Half-life ([2]; iv, 10 mg/kg): 1.39 h
Mean residence time ([2]; iv, 10 mg/kg): 1.35 h
VD ([2]; iv, 10 mg/kg): 786 mL/kg
increase in normalized exposure relative to MBX 3318 ([2]; po): > 30 fold
AUClast ([2]; po, 30 mg/kg): 67,501 hr*ng/mL
Cmax ([2]; po, 30 mg/kg): 11,733 ng/mL
Half-life ([2]; po, 30 mg/kg): 2.27 h
Normalized AUC ([2]; po, 30 mg/kg): 22,500
Tmax ([2]; po, 30 mg/kg): 1 h
signs of toxicity, PO dosing (CD-1 mice): some slight lethargy
Caco-2 Papp (Caco-2 cells): 7.8e-06 cm/s
PSAC K0.5 (PSAC): 0.021 µM
solubility ([3]; solubility limit in H2O, read-out: Solubility): 25 µM (≈ 10.5 µg/mL)
reduction of parasite growth with respect to control mice ([4]; humanized NSG mouse, 50 mg/kg once daily for 4 days, PO): over 90%
blood levels of compound compared with IC50 in vitro ([4]; infected NSG mice treated with MBX 4055 PO, FIG. 3B): well above the IC50 in vitro
MLMS % consumed [5]: 47 % consumed
CC50 (human HeLa cells; 3 days, Table 6, read-out: HeLa CC50): > 200 µM
SI CC50/PSAC K0.5 (human HeLa cells; HeLa CC50 / PSAC K0.5): >9,524
IC50 (P. falciparum; Pf growth inhibition in PGIM, 72 hr, read-out: IC50 PGIM): 42 nM

MSS (% cons) (Serum stability (MSS); % consumed after 60 minutes, Table 4): 0 % cons
MSS % consumed (Serum stability (MSS)): 0 % consumed
Cyp 3A4 % inhib. at 5 μM (CYP3A4): 0 % inhib.
inhibition at 5 µM (CYP3A4; human, Table 4, read-out: Cyp 3A4 % Inhib): 0%
binding by serum proteins [1]: highly bound by serum proteins
Mouse PB % bound [1, 7]: 100 % bound
fraction unbound ([1]; mouse serum, equilibrium dialysis, Table 4, read-out: PPB, percent protein bound): 0.001
Papp A→B (Caco-2 permeability): < 0.5 ×10⁻⁶ cm/s
solubility ([3]; water, kinetic from dmso stock, H2O, Table 4, read-out: Sol., solubility limit in H2O): 25 µM (≈ 10.8 µg/mL)
MLMS (% cons) ([5]; % consumed after 30 min., Table 4): 17 % cons
MLMS % consumed [5]: 17 % consumed
SMILES: Cc1ccc(C)c(N2CCN(S(=O)(=O)c3ccc(-c4ccc(=O)[nH]n4)s3)CC2)c1 [ISG-21, reference compound]
K0.5, activity in the PSAC assay (PSAC; Table 3): 0.003 µM
PSAC K0.5 (PSAC): 0.003 µM
CC50 at 72 h ([6]; Table 3, read-out: CC50, cytotoxicity against HeLa cells): 86 µM
selectivity ratio at 72 h ([6]; HeLa CC50 divided by growth inhibition IC50): 37000
SI CC50/PSAC K0.5 (human HeLa cells; HeLa CC50 / PSAC K0.5): 28,700
IC50 (P. falciparum; Plasmodium falciparum, Pf growth inhibition in PGIM, 72 hr, read-out: IC50 PGIM): 2 nM
IC50 (P. falciparum; Plasmodium falciparum, Table 3, read-out: IC50, Pf growth inhibition in PGIM): 2 nM

SMILES: N#Cc1cccnc1N1CCN(S(=O)(=O)c2ccc(-c3ccc(=O)[nH]n3)s2)CC1 [MBX-2997, 2-(4-((5-(6-oxo-1,6-dihydropyridazin-3-yl)thiophen-2-yl)sulfonyl)piperazin-1-yl)nicotinonitrile]
PSAC K0.5 (PSAC): 0.007 µM
solubility ([3]; water, kinetic from dmso stock, solubility limit in H2O, read-out: Solubility): 25 µM (≈ 10.7 µg/mL)
CC50 at 72 h ([6]; Table 6, read-out: HeLa CC50): > 200 µM
SI CC50/PSAC K0.5 (human HeLa cells; HeLa CC50 / PSAC K0.5): >28,500
IC50 (P. falciparum; Plasmodium falciparum, 72 h, read-out: IC50 PGIM): 38 nM
